Laboratory results taken from patent US20050107289A1, “Anti-microbial peptides and compositions” (priority 2001, published 2005).
Converted amounts (≈) assume the structure as drawn. Where two headings read alike, the source gives them in different places. Non-standard residues stand in square brackets, D forms with d. Residues, ends and D or L forms follow the SMILES beside them.

Assays:
E. faecalis ATCC 51299 = experiment: microbe, parasite or virus in culture; type: cell-based, Enterococcus faecalis; settings: for MIC: Enterococcus faecalis
Protocol: (§1) The antimicrobial activity of the peptides was determined using a broth dilution assay essentially as descried in the guidelines of the National Committee for […] (NCCLS) [National Committee for Clinical Laboratory Standards. Methods for dilution antimicrobial susceptibility tests for bacteria that grow aerobically. Fourth edition. Approved Standard (1997). Document M7-A4. […] The microdilution method has the advantages of requiring less amount of peptide for each assay and the possibility of multiple simultaneous inoculations and was used in most studies. Several of the strains of bacteria tested are further described in Table 3.
(§2) Preparation of peptide solutions. Stock peptide solutions were prepared in 5% DMSO in aq. sucrose (9%). Determination of peptide concentrations was done by quantitative HPLC analysis using known concentrations of internal standards and/or by measuring UV absorption of tryptophane-containing peptide solutions in H2O (λ=280 εTrp: 5690). Serial 2-fold dilutions were made in the above DMSO/aq. sucrose (9%) mixture with concentrations ranging approximately 400-2 μg/ml and aliquots were dispensed in test tubes (100 μl) for the macrodilution test or in microtiter plates (20 μl) for the microdilution assays.
(§3) Inoculum preparation. Overnight cultures of different microorganisms grown in suitable media were diluted 4000 times to an approximate inoculum size of 2.5×10^5 cfu/ml.
(§4) Macrodilution method. Macrodilution methods were performed using procedures similar to those described in the National Committee for Clinical Laboratory Standards. Methods for dilution antimicrobial susceptibility tests for bacteria that grow aerobically. Fourth edition. Approved Standard (1997). Document M7-A4. (NCCLS,Villanova, Pa., 1997). Two ml aliquots of the above inoculum were dispensed to test tubes containing different peptide solutions.
(§5) Microdilution method. Microdilution methods were performed using procedures similar to those described in the National Committee for Clinical Laboratory Standards. Methods for dilution antimicrobial susceptibility tests for bacteria that grow aerobically. Fourth edition. Approved Standard (1997). Document M7-A4.

[1] = test system: E. coli (EL744) K12 (tolC::kan); experiment: microbe, parasite or virus in culture; type: cell-based, Escherichia coli; settings: for MIC: Escherichia coli, read-out: E. coli (EL744) K12 (tolC::kan) MIC
Protocol: as §1, §2, §3, §4, §5

E. coli (K12) = experiment: microbe, parasite or virus in culture; type: cell-based, Escherichia coli; settings: for MIC: Escherichia coli, read-out: E. coli (K12) MIC
Protocol: as §1, §2, §3, §4, §5

H. influenzae ATCC 49247 = experiment: microbe, parasite or virus in culture; type: cell-based, Hemophilus influenzae; settings: for MIC: Haemophilus influenzae
Protocol: as §1, §2, §3, §4, §5

S. aureus ATCC 33592 = experiment: microbe, parasite or virus in culture; type: cell-based, Staphylococcus aureus; settings: for MIC: Staphylococcus aureus
Protocol: as §1, §2, §3, §4, §5

E. faecium SP180 = experiment: microbe, parasite or virus in culture; type: cell-based, Enterococcus faecium; settings: for MIC: Enterococcus faecium
Protocol: as §1, §2, §3, §4, §5

[2] = test system: S. aureus (MRSA) (ATCC No. 33592); experiment: Time-killing curve, S. aureus MRSA ATCC 33592; type: cell-based, Staphylococcus aureus
Protocol: The speed at which several of the cyclic peptides of the invention kill E. coli JM 109 (DE3), Enterococcus faecium SP 180 and S. aureus (MRSA) (ATCC No. 33591 and 33592) was further tested at room temperature and/or at 37° C. A lower temperature tends to enrich the bacterial cultures for mature bacteria because the bacteria are not growing quickly. […] The presence or absence of immature bacteria in the culture may influence the rate at which the bacteria are killed, because immature bacteria tend to be more susceptible to many forms of antibiotics.
FIGS. 9 and 10 illustrate the time course for killing S. aureus (MRSA) (ATCC No. 33592) with varying concentrations of cyclo[KSKWLWLW] cyclic peptide (SEQ ID NO:12) at room temperature and at 37° C. […] This may be due to growth of a few survivors after the residual cyclic peptide within the culture has been exhausted because the amount of peptide employed in that assay was below the MIC value.

[3] = trypsin, α-chymotrypsin, subtilisin, blood plasma; RP-HPLC over 24 h
Protocol: Cyclic peptides having SEQ ID NO:13, 18, 26, and 29 were assayed for proteolytic susceptibility.

[4] = test system: S. aureus (MRSA) ATCC 33591; type: cell-based, Staphylococcus aureus; settings: for MRSA (in vitro activity): Table 9
In short: (§6)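 Broth macro- or microdilution MIC per NCCLS M7-A4. Peptides were serially 2-fold diluted in 5% DMSO/9% aqueous sucrose, about 400–2 μg/ml (dilution-series concentrations). Overnight cultures were diluted 4000-fold to an inoculum of about 2.5×10^5 cfu/ml.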

E. coli JM109(DE3) = type: cell-based, Escherichia coli
In short: as §6

murine red blood cells = experiment: Red blood cell hemolysis; type: cell-based, mouse; design: RBC Hemolysis (HD50): unit not given here
In short: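 Hemolysis read as A560 of supernatant, scaled between saline (0%) and 1% Triton X-100 (100%) controls; peptides were serially diluted onto 5% murine red cells in saline plus 10% FBS and incubated 30 min at 37° C.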

[5] = Human; cited from earlier work
[6] = test system: vancomycin-resistant Enterococus faecalis (VRE)(ATCC 51575); type: cell-based, Enterococcus faecalis; design: key to VRE (in vitro activity): peptide concentration in μg/ml (broth dilution assay); settings: for VRE (in vitro activity): Table 9
In short: as §6

[7] = test system: Bacillus cereus ATCC 11778; type: cell-based; settings: Table 10
In short: as §6

[8] = ATCC51299, read-out: E. faecalis ATCC 51299 MIC
[9] = media b: cation adjusted Meuller Hinton broth (MHBII)
[10] = ATCC33592, read-out: S. aureus ATCC 33592 MIC
[11] = SP180, read-out: E. faecium SP180 MIC
[12] = media c: Brain Heart Infusion (BHI)
[13] = ATCC49247, HTM, read-out: H. influenzae ATCC 49247 MIC

Structure (SMILES): CC1(C)S[C@@H]2[C@H](NC(=O)Cc3ccccc3)C(=O)N2[C@H]1C(=O)O [Penicillin G, reference compound]
- E. faecalis ATCC 51299 MIC (E. faecalis ATCC 51299; BHI broth): 0.5 µg/mL
- E. coli (EL744) K12 (tolC::kan) MIC ([1]; MHII broth): 16 µg/mL
- E. coli (K12) MIC (E. coli (K12); MHII broth): 32 µg/mL
- H. influenzae ATCC 49247 MIC (H. influenzae ATCC 49247; HTM): 4 µg/mL
- S. aureus ATCC 33592 MIC (S. aureus ATCC 33592; MHII broth): 64 µg/mL
- E. faecium SP180 MIC (E. faecium SP180; BHI broth): 128 µg/mL
- reduction of cfu ([2]; 512 μg/ml, 37° C.): effective in reducing the number of cfu within four hours
- killing or reducing S. aureus (MRSA) population ([2]; room temperature, 0-8 hours, up to 512 μg/ml): no concentration of penicillin G assayed up to 512 μg/ml was effective

Structure (SMILES): CC(C)C[C@H]1NC(=O)[C@H](CCCNC(=N)N)NC(=O)[C@@H](CCCNC(=N)N)NC(=O)[C@H](Cc2c[nH]c3ccccc23)NC(=O)[C@@H](CC(C)C)NC(=O)[C@H](Cc2c[nH]c3ccccc23)NC1=O [SEQ ID NO:29, cyclo-(D-Arg-Arg-D-Leu-Trp-D-Leu-Trp)] (cyclo(R[dL]W[dL]W[dR]))
- proteolytic stability [3]: stable
- S. aureus (MRSA) MIC ([4]; ATCC 33591): 35 µg/mL
- E. coli MIC (E. coli JM109(DE3); JM109): 5 µg/mL
- Hemolysis HD50 (murine red blood cells; red cells of murine): 90 µg/mL

Structure (SMILES): CN[C@H](CC(C)C)C(=O)N[C@H]1C(=O)N[C@@H](CC(N)=O)C(=O)N[C@H]2C(=O)N[C@H]3C(=O)N[C@H](C(=O)N[C@H](C(=O)O)c4cc(O)cc(O)c4-c4cc3ccc4O)[C@H](O)c3ccc(c(Cl)c3)Oc3cc2cc(c3O[C@@H]2O[C@H](CO)[C@@H](O)[C@H](O)[C@H]2O[C@H]2C[C@](C)(N)[C@H](O)[C@H](C)O2)Oc2ccc(cc2Cl)[C@H]1O [Vancomycin, reference compound]
- MIC (E. faecalis ATCC 51299; [8]): 32 µg/mL (≈ 22.1 µM)
- MRSA (in vitro activity) [4, 9]: VANCOMYCIN <1.8
- MIC [1]: 128 µg/mL (≈ 88.3 µM)
- MIC (E. coli (K12)): 128 µg/mL (≈ 88.3 µM)
- CL total clearance [5]: 66 mL/min
- Kel elimination rate constant [5]: 0.12 h⁻¹
- T1/2 half life time [5]: 6 h
- VD volume of distribution [5]: 0.47 L/kg
- MIC (H. influenzae ATCC 49247; ATCC49247, read-out: H. influenzae ATCC 49247 MIC): 128 µg/mL (≈ 88.3 µM)
- MIC (S. aureus ATCC 33592; [10]): 0.5 µg/mL (≈ 0.345 µM)
- MIC (E. faecium SP180; [11]): > 128 µg/mL
- VRE (in vitro activity) [6, 12]: >240
- RBC Hemolysis (HD50) (murine red blood cells; Table 9): >240

Structure (SMILES): CC(C)C[C@H]1NC(=O)[C@H](Cc2c[nH]c3ccccc23)NC(=O)[C@@H](CCCCN)NC(=O)[C@H](Cc2c[nH]cn2)NC(=O)[C@@H](CO)NC(=O)[C@H](Cc2c[nH]c3ccccc23)NC(=O)[C@@H](CC(C)C)NC(=O)[C@H](Cc2c[nH]c3ccccc23)NC1=O [SEQ ID NO:13] (cyclo([dS]H[dK]W[dL]W[dL]W))
- B. cerius MIC [7]: 12 µg/mL
- proteolytic stability [3]: stable
- S. aureus (MRSA) MIC ([4]; Table 6, ATCC 33591): 10 µg/mL
- MRSA (in vitro activity) ([4]; media a: anti-microbial media-3 (AM-3)): 10
- MRSA MIC ([4]; Table 10, ATCC 33591): 10 µg/mL
- E. coli MIC (E. coli JM109(DE3); Table 6, JM109(DE3)): 100 µg/mL
- VRE (in vitro activity) ([6]; media a: AM-3): 40
- VRE MIC ([6]; Table 10, ATCC 51575): 40 µg/mL
- RBC Hemolysis (HD50) (murine red blood cells; Table 9): 35

Structure (SMILES): CCn1cc(C(=O)O)c(=O)c2cc(F)c(N3CCNCC3)cc21 [Norfloxacin, reference compound]
- MIC (E. faecalis ATCC 51299; ATCC51299, BHI broth, read-out: E. faecalis ATCC 51299 MIC): 2 µg/mL (≈ 6.26 µM)
- MRSA (in vitro activity) [4, 9]: <2.8
- MIC [1]: 0.016 µg/mL (≈ 0.0501 µM)
- MIC (E. coli (K12); MHII broth): 0.06 µg/mL (≈ 0.188 µM)
- MIC (H. influenzae ATCC 49247; [13]): 0.06 µg/mL (≈ 0.188 µM)
- MIC (S. aureus ATCC 33592; ATCC33592, MHII broth, read-out: S. aureus ATCC 33592 MIC): 0.5 µg/mL (≈ 1.57 µM)
- MIC (E. faecium SP180; SP180, BHI broth, read-out: E. faecium SP180 MIC): 32 µg/mL (≈ 100 µM)
- VRE (in vitro activity) [6, 12]: <2.8
- RBC Hemolysis (HD50) (murine red blood cells; mouse, 30 min): >360

Structure (SMILES): CC[C@H]1OC(=O)[C@H](C)[C@@H](O[C@H]2C[C@@](C)(OC)[C@@H](O)[C@H](C)O2)[C@H](C)[C@@H](O[C@@H]2O[C@H](C)C[C@H](N(C)C)[C@H]2O)[C@](C)(O)C[C@@H](C)C(=O)[C@H](C)[C@@H](O)[C@]1(C)O [Erythromycin]
- Kel elimination rate constant [5]: 0.58 h⁻¹
- T1/2 half life time [5]: 1.2 h

Structure (SMILES): NC[C@H]1O[C@H](O[C@H]2[C@H](O)[C@@H](O[C@H]3O[C@H](CO)[C@@H](O)[C@H](N)[C@H]3O)[C@H](N)C[C@@H]2N)[C@H](O)[C@@H](O)[C@@H]1O [Kanamycin, reference compound]
- MIC (E. faecalis ATCC 51299; [8]): > 128 µg/mL
- MRSA (in vitro activity) [4, 9]: 150
- MIC [1]: > 128 µg/mL
- MIC (E. coli (K12); MHII broth): 4 µg/mL (≈ 8.26 µM)
- MIC (H. influenzae ATCC 49247; [13]): 4 µg/mL (≈ 8.26 µM)
- MIC (S. aureus ATCC 33592; [10]): > 128 µg/mL
- MIC (E. faecium SP180; [11]): > 128 µg/mL
- VRE (in vitro activity) [6, 12]: >600
- RBC Hemolysis (HD50) (murine red blood cells; mouse, 30 min): >600
